Consider 2 molecules from article PMC2930754 (Chemical communications (Cambridge, England), 2010).

For assay [1], the system named is A2780 ovarian cancer cells. Put plainly: Antiproliferative activity to A2780 ovarian cancer cells. In kind it is cell-based. Conditions: Homo sapiens, A2780, read-out: IC50 A2780 (antiproliferative activity).
For the next assay, the system named is tubulin. Put plainly: Promotion of in vitro tubulin polymerization. In kind it is biochemical. The following applies: in vitro tubulin assembly.

For `C/C(=C\c1csc(C)n1)[C@@H]1C[C@@H]2O[C@]2(C)CCC[C@H](C)[C@H](O)[C@@H](C)C(=O)C(C)(C)[C@@H](O)CC(=O)O1` [Compound 2, epothilone B], the IC50 in assay [1] was 1.9 ± 0.2 nM. Turning to `C/C1=C/C[C@@H](/C(C)=C/c2csc(C)n2)OC(=O)C[C@H](O)C(C)(C)C(=O)[C@H](C)[C@@H](O)[C@@H](C)CCC1` [Compound 4, epothilone D], in the assay on tubulin, the “ED50, Tb polym. (promotion of tubulin polymerization)” value stood at 440 ± 20 nM. In addition, the IC50 in assay [1] was 6.8 ± 1.7 nM.
